Reference: patent US20240287089A1, “Preparation and Uses of 7-Azaindenoisoquinolines” (Purdue Research Foundation, priority 0001, published 2024)

Experiments:
[1] = tested on: OVCAR-3 (Ovarian); details: Ovarian OVCAR-3; reference 20; read-out: Cytotoxicity GI50; cited from earlier work
[2] = Brain penetration and plasma/brain pharmacokinetics in combination with Temodar or Lynparza
Method: A similar analysis was performed with LMP744 and LMP400 in combination with Temodar and Lynparza.

[3] = tested on: SF-539 (CNS); details: CNS SF-539; reference 20; read-out: Cytotoxicity GI50; cited from earlier work
[4] = tested on: DU-145 (Prostate); details: Prostate DU-145; reference 20; read-out: Cytotoxicity GI50; cited from earlier work
[5] = tested on: NCI-60 cancer cell lines; details: NCI-60 panel; reference 20; read-out: MGM (average GI50 across NCI-60 panel); cited from earlier work
[6] = tested on: UACC-62 (Melanoma); details: Melanoma UACC-62; reference 20; read-out: Cytotoxicity GI50; cited from earlier work
[7] = tested on: HCT-116 (Colon); details: Colon HCT-116; reference 20; read-out: Cytotoxicity GI50; cited from earlier work
[8] = 10 mg/kg IV + Lynparza 100 mg/kg PO, 0.25 h
[9] = 10 mg/kg IV + Lynparza 100 mg/kg PO, 0.5 h
[10] = 10 mg/kg IV + Lynparza 100 mg/kg PO, 1 h
[11] = 10 mg/kg IV + Lynparza 100 mg/kg PO, 2 h
[12] = 10 mg/kg IV + Lynparza 100 mg/kg PO, 4 h
[13] = 10 mg/kg IV + Lynparza 100 mg/kg PO, 8 h
[14] = 10 mg/kg IV + Lynparza 100 mg/kg PO, 24 h
[15] = LMP744 20 mg/kg IV + Temador 125 mg/kg PO, 0.25 h
[16] = LMP744 20 mg/kg IV + Temador 125 mg/kg PO, 0.5 h
[17] = LMP744 20 mg/kg IV + Temador 125 mg/kg PO, 1 h
[18] = LMP744 20 mg/kg IV + Temador 125 mg/kg PO, 2 h
[19] = LMP744 20 mg/kg IV + Temador 125 mg/kg PO, 4 h
[20] = LMP744 20 mg/kg IV + Temador 125 mg/kg PO, 8 h
[21] = LMP744 20 mg/kg IV + Temador 125 mg/kg PO, 24 h
[22] = brain, 10 mg/kg IV + Lynparza 100 mg/kg PO
[23] = brain, LMP744 20 mg/kg IV + Temador 125 mg/kg
[24] = plasma, 10 mg/kg IV + Lynparza 100 mg/kg PO
[25] = plasma, LMP744 20 mg/kg IV + Temador 125 mg/kg

## COc1cc2c3c(n(CCCNCCO)c(=O)c2cc1OC)-c1cc2c(cc1C3=O)OCO2 [LMP744]
[1]
  GI50: 350 nM
[2]; [8]
  Brain Conc: 89 ± 19 nM
  Brain/Plasma Conc Ratio: 0.46
  Plasma Conc: 1356 ± 229 nM
[2]; [9]
  Brain Conc: 780 ± 24 nM
  Brain/Plasma Conc Ratio: 0.83
  Plasma Conc: 940 ± 155 nM
[2]; [10]
  Brain Conc: 825 ± 250 nM
  Brain/Plasma Conc Ratio: 2.05
  Plasma Conc: 402 ± 29 nM
[2]; [11]
  Brain Conc: 850 ± 58 nM
  Brain/Plasma Conc Ratio: 2.64
  Plasma Conc: 322 ± 88 nM
[2]; [12]
  Brain Conc: 548 ± 28 nM
  Brain/Plasma Conc Ratio: 2.91
  Plasma Conc: 188 ± 54 nM
[2]; [13]
  Brain Conc: 557 ± 66 nM
  Brain/Plasma Conc Ratio: 7.74
  Plasma Conc: 72 ± 26 nM
[2]; [14]
  Brain Conc: 457 ± 61 nM
  Brain/Plasma Conc Ratio: 20.30
  Plasma Conc: 13 ± 2 nM
[2]; [15]
  Brain Conc: 1093 ± 168 nM
  Brain/Plasma Conc Ratio: 0.49
  Plasma Conc: 2238 ± 465 nM
[2]; [16]
  Brain Conc: 1199 ± 243 nM
  Brain/Plasma Conc Ratio: 0.89
  Plasma Conc: 1854 ± 101 nM
[2]; [17]
  Brain Conc: 1390 ± 145 nM
  Brain/Plasma Conc Ratio: 1.35
  Plasma Conc: 1027 ± 202 nM
[2]; [18]
  Brain Conc: 1328 ± 188 nM
  Brain/Plasma Conc Ratio: 2.49
  Plasma Conc: 534 ± 143 nM
[2]; [19]
  Brain Conc: 1272 ± 188 nM
  Brain/Plasma Conc Ratio: 3.58
  Plasma Conc: 355 ± 37 nM
[2]; [20]
  Brain Conc: 1244 ± 78 nM
  Plasma Conc: 139 ± 17 nM
[2]; [21]
  Brain Conc: 955 ± 76 nM
  Brain/Plasma Conc Ratio: 46
  Plasma Conc: 21 ± 4 nM
[2]; [22]
  AUClast: 5860 ng·h/g
  Cmax: 373 ng/g
  Tmax: 2.00 h
[2]; [23]
  AUClast: 12185 ng·h/g
  Cmax: 611 ng/g
  Tmax: 1.00 h
[2]; [24]
  AUCInf: 1535 ng·h/mL
  AUClast: 1491 ng·h/mL
  AUClast/D: 149 h·ng/mL per mg/kg
  AUC—% Extrap—obs: 2.83%
  C0: 2072 ng/mL
  Cl_obs: 109 mL/min/kg
  MRTInf—obs: 4.33 h
  T1/2: 5.43 h
  Vss—obs: 28.2 L/kg
[2]; [25]
  AUCInf: 2881 ng·h/mL
  AUClast: 2813 ng·h/mL
  AUClast/D: 141 h·ng/mL per mg/kg
  AUC—% Extrap—obs: 2.37%
  C0: 4973 ng/mL
  Cl_obs: 116 mL/min/kg
  MRTInf—obs: 4.09 h
  T1/2: 5.20 h
  Vss—obs: 28.4 L/kg
[3]
  GI50: 40 nM
[4]
  GI50: < 10 nM
[5]
  GI50: 110 nM
[6]
  GI50: 30 nM
[7]
  GI50: 100 nM
